Reference: PMC5746379 (2017)

How the values were obtained:
[1] = tested on: P1 (DNA, G4) GGGCGGTGGGAGGGGGGTGGTGGG; test: CD melting; conditions: 1:3 ratio P1-M2; Tm ~79 °C with and without M2; buffer not stated
[2] = tested on: P2 (DNA, G4) GGGCGGGGAGGGGGG; test: WaterLOGSY 1H NMR; conditions: 298 K; water with 10% D2O
[3] = tested on: P2 (DNA, G4) GGGCGGGGAGGGGGG; test: fluorescence titration of M2 (emission shift Δλ); conditions: excitation 345 nm; buffer not stated
[4] = tested on: P1 (DNA, G4) GGGCGGTGGGAGGGGGGTGGTGGG; test: absorption, fluorescence titration, WaterLOGSY NMR; conditions: buffer and highest concentration not stated

binding [1]: no
binding [2]: yes
KD [3]: 13.2 µM
binding [4]: no
Structure (SMILES): CN(CCC#N)c1ccc(C=NCCCN=Cc2ccc(N(C)CCC#N)cc2)cc1
